Measurements: patent EP4477653A1 (Perha Pharmaceuticals, priority 2023, dated 2024)
Like-named read-outs stand apart in the source and are kept apart here.

What was measured:
[1] = target: T1, human recombinant A3AR (expressed in HEK-293 cells) (Homo sapiens, UniProt P0DMS8); experiment: Adenosine receptors antagonism assay (Eurofins), [125I]-AB-MECA radioligand competition; type: binding
T1 construct: host or cells: HEK-293 cells
T1 sequence (P0DMS8 1-318): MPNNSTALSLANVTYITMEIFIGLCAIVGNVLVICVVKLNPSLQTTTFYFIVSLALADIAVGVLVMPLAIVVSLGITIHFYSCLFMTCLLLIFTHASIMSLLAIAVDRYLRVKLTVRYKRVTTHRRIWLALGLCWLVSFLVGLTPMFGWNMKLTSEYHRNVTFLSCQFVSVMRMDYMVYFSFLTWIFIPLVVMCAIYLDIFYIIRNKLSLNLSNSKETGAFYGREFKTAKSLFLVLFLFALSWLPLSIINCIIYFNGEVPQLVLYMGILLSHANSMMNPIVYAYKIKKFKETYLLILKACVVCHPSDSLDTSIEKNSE
Method: Assays were carried out at r.t. for 120 min. Compounds were initially tested at three concentrations (0.01, 0.1, 1 µM). […] IC50 values, which is the concentration causing a half-maximal inhibition of control specific binding, and Hill coefficients (nH) were determined by non-linear regression analysis of the competition curves generated with mean replicate values using Hill equation curve fitting. The inhibition constants (Ki) were calculated using the Cheng Prusoff equation.

LogD (HPLC) = type: physicochemical; settings: by HPLC; Table 2
[2] = Reversed-phase HPLC analysis of final compounds (stability under the analytical conditions); type: physicochemical
Method: Final compounds: Reversed-phase HPLC/MS analyses were carried out with a HPLC Ultimate 3000 (ThermoScientific) with an UV-DAD detector. Mass detection processing with direct infusion in mass detector (SQD2) from UPLC Acquity (Waters). Compounds (0.2 to 0.6 mg) were solubilized in a mixture of DMSO/H2O (1/1) and filtered on syringe filter 0.2 µm. • Acidic conditions: Thermo Scientific Syncronis C18 column, 150 x 4.6 mm, 5 µm. Flow rate: 1 mL/min. Gradient: (H2O + 0.1% HCOOH v/v)/(ACN + 0.1% HCOOH v/v) from 95/5 to 5/95 in 19.0 min. • Alkaline conditions: Thermo Scientific Syncronis C18 column, 150 × 4.6 mm, 5 µm or XTERRA RP18, 150×4.6mm, 3.5µm. Flow rate: 1 mL/min. Gradient: (HCOONH4 10mM + NH4OH 25% aq. to ajust pH = 10)/ACN from 95/5 to 5/95 in 19.0 min. Table 2: Spectroscopic and analytical characterization of compounds (1) to (220)

[3] = test system: hair cells in isolated organs of Corti; experiment: Otoprotective effects in ex vivo cultured organs of Corti, hair cells stained for myosine 7a; type: cell-based, mice; settings: 24 hrs, compound 0.1-1 µM added 2 hrs before
Method: Organs of Corti were obtained from mice at the P0-P3 stage. Organs of Corti were cultured ex vivo for 24 h before addition of cisplatin (20 µM), gentamycin (100 µM) or neomycin (3 mM) with or without compound (175) (1 or 0.1 µM) added 2 hrs before the ototoxins. After 24 hrs incubation, outer and inner ciliated hair cells were stained with an antibody directed against myosine 7a.

[4] = target: T2, Human recombinant A3AR expressed in CHO cells (Homo sapiens, UniProt P0DMS8); experiment: A3AR functional assay, cAMP levels measured by HTRF; type: cell-based
T2 construct: expressed in transfected cells; host or cells: CHO cells
T2 sequence (P0DMS8 1-318): T1 sequence (P0DMS8 1-318)
Method: Both assays were run for 20 min at 37°C, and cAMP levels measured by HTRF (homogeneous time resolved fluorescence) was used as an endpoint. The EC50 values (concentration producing a half-maximal response) and IC50 values (concentration causing a half-maximal inhibition of the control agonist response) were determined by non-linear regression analysis of the concentration-response curves generated with mean replicate values using Hill equation curve fitting.
An antagonistic activity in a radioligand assay can be due to competition to the same site by either an agonist or an antagonist (inhibitor). […] Assays were run for 20 min at 37°C and cAMP level measured by HTRF was used as an endpoint measure of the A3AR activity.

panel of 168 GPCRs = experiment: PathHunter β-arrestin enzyme fragment complementation, agonist and antagonist mode; type: cell-based; settings: figure 2
Method: […] In brief, when the GPCR is activated and β-Arrestin is recruited to the receptor, the two fragments of β-galactosidase complementation occurs, restoring β- galactosidase activity which is measured using chemiluminescent PathHunter® Detection Reagents. The tested compound can be evaluated as a potential agonist or, in the presnece of a specifi agonits of each GPCR, as a potential antagonist. Results are provided in reference to the assay performed in the absence of tested compound.
The results of an evaluation of the potential agonist or antagonist activity of compound (175) on 168 GPCRs are depicted in figure 2.

[5] = [125I]-AB-MECA 0.15 nM, r.t., 120 min, IC50 from dose-response curves, read-out: Potency Class A3AR
[6] = read-out: Potency Class A3AR, [125I]-AB-MECA 0.15 nM, r.t., 120 min, IC50 from dose-response curves

Compound | IC50 [1, 5] | chromatographic logD (LogD (HPLC)) | also measured
Cc1cnc(CNc2cc(NCc3ccccc3)c3nnc(C(C)C)n3n2)cn1 [compound 139, N8-benzyl-3-isopropyl-N6-[(5-methylpyrazin-2-yl)methyl]-[1,2,4]triazolo[4,3-b]pyridazine-6,8-diamine] | 100 to 1000 nM | 2.3 | –
Cc1cc(C)nc(CNc2cc(NCc3ccccc3)c3nnc(C(C)C)n3n2)n1 [compound 145, N8-benzyl-N6-[(4,6-dimethylpyrimidin-2-yl)methyl]-3-isopropyl-[1,2,4]triazolo[4,3-b]pyridazine-6,8-diamine] | 100 to 1000 nM | 2.52 | –
CC(C)c1nnc2c(NCc3ccccc3)cc(NC3CCCCCC3)nn12 [compound 121, N8-benzyl-N6-cycloheptyl-3-isopropyl-[1,2,4]triazolo[4,3-b]pyridazine-6,8-diamine] | 10 to 100 nM | 4.57 | –
CC(C)c1nnc2c(NCc3ccccc3)cc(NC3CCCCC3O)nn12 (racemic) [compound 134, racemic trans-2-[[8-(benzylamino)-3-isopropyl-[1,2,4]triazolo[4,3-b]pyridazin-6-yl]amino]cyclohexanol] | – | 2.73 | IC50 [1, 6]: 10 to 100 nM
CC(C)c1nnc2c(NCc3ccccc3)cc(NCc3nccn3C)nn12 [compound 129, N8-benzyl-3-isopropyl-N6-[(1-methylimidazol-2-yl)methyl]-[1,2,4]triazolo[4,3-b]pyridazine-6,8-diamine] | 100 to 1000 nM | 1.95 | –
CC(C)c1nnc2c(NCc3ccccc3)cc(NC3CCCC3)nn12 [compound 118, N8-benzyl-N6-cyclopentyl-3-isopropyl-[1,2,4]triazolo[4,3-b]pyridazine-6,8-diamine] | 1 to 10 nM | 3.84 | –
CCC(CC)Nc1cc(NC(=O)Oc2ccccc2)c2nnc(C(C)C)n2n1 [compound 100, phenyl N-[6-(1-ethylpropylamino)-3-isopropyl-[1,2,4]triazolo[4,3-b]pyridazin-8-yl]carbamate] | – | – | HPLC ([2]; Alkaline conditions (HCOONH4 10mM + NH4OH, pH = 10 / ACN gradient)): Unstable ^b; IC50 [1]: 1 to 10 nM
CC(C)c1nnc2c(NCc3ccccc3)cc(NCc3cnn(C)c3)nn12 [compound 140, N8-benzyl-3-isopropyl-N6-[(1-methylpyrazol-4-yl)methyl]-[1,2,4]triazolo[4,3-b]pyridazine-6,8-diamine] | 10 to 100 nM | 2.3 | –
CC(C)c1nnc2c(NCc3ccccc3)cc(NCC3(C)CCCCC3)nn12 [compound 136] | – | 4.88 | IC50 [1, 6]: 10 to 100 nM
CCC(CC)Nc1cc(Nc2cccnn2)c2nnc(C3CC3)n2n1 [compound 175, 3-cyclopropyl-N6-(pentan-3-yl)-N8-(pyridazin-3-yl)-[1,2,4]triazolo[4,3-b]pyridazine-6,8-diamine] | < 1 nM | – | hair cell death induced by cisplatin ([3]; cisplatin 20 µM, figure 5A): prevented cell death; hair cell death induced by gentamycin ([3]; gentamycin 100 µM, figure 5B): prevented cell death; hair cell death induced by neomycin ([3]; neomycin 3 mM, figure 5C): prevented cell death; selectivity towards ARs ([1]; A3AR compared to A1AR, A2AAR and A2BAR, figure 3): selective of A3AR; agonist effect ([4]; absence of ligand, concentrations tested 1 nM to 3.3 µM, data not shown): no agonist effect was detected; inhibition of A3AR ([4]; antagonist mode, stimulation 10 nM IB-MECA, 20 min at 37°C, figure 4): ≥ 65%; mode of action on A3AR ([4]; figure 4): partial antagonist inhibitor; effect on all other GPCRs (panel of 168 GPCRs; agonist and antagonist mode, 0.1 µM compound): not or marginally impacted; inhibition of A3AR among 168 GPCRs (panel of 168 GPCRs; antagonist mode, GPCR exposed to its specific ligand and 0.1 µM compound): fully inhibited
CSCCCNc1cc(NCc2ccccc2)c2nnc(C(C)C)n2n1 [compound 17, N8-benzyl-3-isopropyl-N6-(3-methylsulfanylpropyl)-[1,2,4]triazolo[4,3-b]pyridazine-6,8-diamine] | 10 to 100 nM | – | HPLC ([2]; Acidic conditions (H2O + 0.1% HCOOH / ACN + 0.1% HCOOH gradient)): Unstable ^a
CC(C)c1nnc2c(NCc3ccccc3)cc(NCc3cccnc3)nn12 [compound 132, N8-benzyl-3-isopropyl-N6-(3-pyridylmethyl)-[1,2,4]triazolo[4,3-b]pyridazine-6,8-diamine] | 10 to 100 nM | 2.36 | –
CC(C)c1nnc2c(NCc3ccccc3)cc(NCc3ccccn3)nn12 [compound 131, N8-benzyl-3-isopropyl-N6-(2-pyridylmethyl)-[1,2,4]triazolo[4,3-b]pyridazine-6,8-diamine] | 10 to 100 nM | 2.51 | –
COC1CCC(Nc2cc(NCc3ccccc3)c3nnc(C(C)C)n3n2)CC1 (racemic) [compound 120, N8-benzyl-3-isopropyl-N6-(4-methoxycyclohexyl)-[1,2,4]triazolo[4,3-b]pyridazine-6,8-diamine] | 100 to 1000 nM | 3.09 | –
CSCCNc1cc(NCc2ccccc2)c2nnc(C(C)C)n2n1 [compound 143, N8-benzyl-3-isopropyl-N6-(2-methylsulfanylethyl)-[1,2,4]triazolo[4,3-b]pyridazine-6,8-diamine] | 10 to 100 nM | 3.07 | –
CC(C)c1nnc2c(NCc3ccccc3)cc(NCc3ccncc3)nn12 [compound 133, N8-benzyl-3-isopropyl-N6-(4-pyridylmethyl)-[1,2,4]triazolo[4,3-b]pyridazine-6,8-diamine] | 100 to 1000 nM | 2.36 | –
